Results taken from a melting point compilation (Tetko et al.; mined from patent text by program, amines drawn as free bases though some values may be those of a salt).

Row | SMILES | melting point [°C]
1 | CS(=O)(=O)SCCOC(=O)Cc1cccc(Nc2c(Cl)cccc2Cl)c1 | 41 to 44
2 | CCOC(=N)c1c(O)ccc2ccccc12 | 145 to 146
3 | O=C1c2c(Br)cccc2-n2cnc(I)c2[C@@H]2CCCN12 | 301 to 303
4 | COC(=O)C=C(OC)c1ccccc1OCc1csc(-c2ccc(F)cc2)n1 | 105 to 108
5 | Cc1ccccc1C(CCC(=O)O)Oc1cc(OCc2ccsc2)ccc1C(=O)C(=O)O (racemic) | 173 to 175
6 | CCCCNc1c(C(=O)OCC)cnc2[nH]ncc12 | 181
7 | CN(C(=O)C(Br)OC(N)=O)c1ccccc1 (centres undefined) | 136 to 138
8 | Cn1cnc(COc2nc3c(cc2C(C)(C)C)nnn3-c2ccccc2F)n1 | 127 to 129
9 | Cc1nc(-n2cc(CCCc3ccccc3)nn2)sc1C(=O)NCc1ccccc1 | 94 to 97
10 | CCOC(=O)CCc1ccc(OC(C)C)nc1Oc1ccc(Cl)cc1Cl | 42.5 to 43.5
11 | Cc1cccc2[nH]c(-c3ccccc3[N+](=O)[O-])nc12 | 167 to 168
12 | CN(C)Cc1c(-c2ccc(O)cc2)[nH]c2ncnc(Nc3cccc(Cl)c3)c12 | 269 to 271
13 | COCCOc1cc(NC(=O)OC(C)(C)C)c(NC(=O)CC(=O)c2cccc(I)c2)cc1C#Cc1ccccc1 | 172
14 | COCCNC(=O)c1nc(NC(C)=O)c2cc(Cc3ccc(F)cc3)cnc2c1OCc1ccccc1 | 147 to 149
15 | Cc1ccc(C(=O)N[C@H](Cc2ccc(C(F)(F)F)cc2)[C@@H](O)c2ccc(F)cc2)c2ccccc12 (racemic) | 198 to 199
16 | CSc1ccc(CN2CC(C)(C)C(Oc3ccc(C#N)c(C(F)(F)F)c3)C2=O)cc1 (centres undefined) | 44.1 to 44.8
17 | COc1ccccc1Oc1c(Cl)nc(SC)nc1NS(=O)(=O)c1ccc(C(C)(C)C)cc1 | 123 to 124
18 | O=C(NC(Cc1ccccc1)c1ncc(C(F)(F)F)cc1Cl)c1c(Cl)cccc1Cl (centres undefined) | 164 to 168
19 | COc1cncnc1N1CCN(CCCc2c[nH]c3ccc(N(C)S(=O)(=O)C(F)(F)F)cc23)CC1 | > 230
20 | C(=C/c1ccccc1)/COCCC1CCN(Cc2ccccc2)CC1 | 68 to 70
21 | CCC1CC(=O)C=C2CCC3C4CCC(=O)C4(C)CCC3C21C (centres undefined) | 168
22 | O=C(O)CNC(=O)c1cc(Br)nc(Br)c1 | 151 to 152
23 | CC=CC(=O)c1oc2c(-c3ccc(F)cc3)c(-c3ccc(S(C)(=O)=O)cc3)nn2c1C | 197 to 199
24 | COc1ccc2c(c1OC)C[C@@H](C1CCN(CCc3ccccc3)CC1)O[C@H]2CN (relative stereo) | 100 to 102
25 | Cc1ccc2[nH]c(=O)n(C3CCNCC3)c2c1 | > 300

Row | SMILES | melting point [°C]
26 | COc1ccc(-c2c(Cl)ncnc2NS(=O)(=O)c2ccc(C(C)C)cc2)cc1 | 181 to 182
27 | COc1ccc([N+](=O)[O-])cc1NC(=O)CCCCC1CCSS1 (centres undefined) | 117
28 | Brc1ccc(C2CCCc3cncn32)cc1 (centres undefined) | 216
29 | Cc1ccc(C)n1Nc1ccc(N2CC(C)OC(C)C2)nn1 (centres undefined) | 147 to 148
30 | CC(=O)N1C(=O)C=CC1=O | 58
31 | O=C(O)Cn1c(=O)n(S(=O)(=O)c2ccccc2)c(=O)c2ccc(Cl)cc21 | 212 to 214
32 | CS(=O)(=O)c1ccc2c([N+](=O)[O-])cc3c(c2c1)C(CCl)CN3 (centres undefined) | 193 to 194
33 | CCc1cc2c(ccc(=O)n2Cc2ccc(NC(=O)c3ccccc3S(=O)(=O)O)cc2)c(CC)n1 | 233 to 236
34 | COC(=O)C1(CCCCCCCCCCCCC2(C(=O)NC3CC3)CC2)CC1 | 50.6 to 53
35 | Cc1ccc(Cc2cnc(NCCCCc3ncc(Br)cc3C)[nH]c2=O)cn1 | 151 to 152
36 | CCOCCn1cc(C2CCN(CCOc3ccc(C(=O)O)cc3)CC2)c2ccccc21 | 85
37 | CN1CCC(c2ccc(Oc3ccccc3)cc2)(C(C)(C)O)CC1 | 148
38 | CC(C)(C)c1cc(C=CC(=O)NN)cc(C(C)(C)C)c1O | 166
39 | O=C(O)CCc1nc(-c2cc3ccccc3o2)no1 | 154 to 155
40 | CC(C)(C)OC(=O)n1ccc2cc([N+](=O)[O-])ccc21 | 135 to 137
41 | CN(C)C(=N)Nc1ccccc1-c1cccc(F)c1 | 109 to 110
42 | N#CC(=NNC(=N)N)c1cccc(Cl)c1Cl | 221 to 222
43 | CC(=O)c1c(C)cc(NC(C)(C)C)nc1NC(C)(C)C | 127 to 128
44 | Oc1cccc(-c2ccncc2)c1 | > 300
45 | CC(C)C1(COC(C)(C)C)Cc2cc(OCC(=O)O)c(Cl)c(Cl)c2C1=O (centres undefined) | 148 to 149
46 | O=C(c1ccccc1)N1CCN(c2ccc3nc4[nH]c(=O)[nH]c4cc3c2)CC1 | > 300
47 | CC(=O)NCC1CN(c2ccc(N3CCN(c4nc5cc([N+](=O)[O-])ccc5o4)CC3)c(F)c2)C(=O)O1 (centres undefined) | 224 to 225
48 | COc1ccc2c(c1OC)C(=O)OC21CN(C)Cc2ccccc21 (centres undefined) | 193 to 194
49 | COC(=O)Cc1cc(OC)ccc1OCc1ccc(OCc2nc(-c3ccccc3)oc2C)cc1 | 160 to 161
50 | COC(=O)CS(=O)(=O)CCC=C1SC=CS1 | 133 to 135

Row | SMILES | melting point [°C]
51 | O=C(O)CN(Cc1ccc(OCc2ccc(F)cc2)cc1)C(=O)c1cn2cc(-c3ccc(Cl)cc3)ccc2n1 | 206
52 | O=C(/C=C/c1cccc(S(=O)(=O)N2CCN(c3ncccn3)CC2)c1)NO | 200
53 | Cc1ccnc(C(C#N)Sc2nc(N)cc(Cl)n2)c1 (centres undefined) | 145 to 146
54 | COC(=O)C(C)(C)S(=O)(=O)N1CCC(c2ccc(Br)c(C)c2)CC1 | 103 to 106
55 | CCOC(=O)c1cnc(Oc2ccccc2)s1 | 67
56 | O=C1OCCC1=Cc1ccccc1O | 162 to 164
57 | CCCCCCCNC(=O)Nc1ccc(N(C)C)cc1C(=O)N(CC1CCN(C(c2ccccc2)c2ccccc2)CC1)N(C)C | 178 to 179
58 | O=c1[nH]c2cc(Cl)ccc2c(O)c1-c1ccc(/C=C\c2ccccc2)cc1 | 284 to 286
59 | CCOC(=O)CN1C(=O)[C@@H](NC(=O)OC(C)(C)C)CC(=O)c2ccccc21 | 86 to 88
60 | COc1ccc(CCN2CCC(N3Cc4cc(Cl)c(S(N)(=O)=O)cc4C3=O)CC2)cc1 | 125 to 135
61 | Cn1c(OCC(F)(F)F)nn(C(=O)Oc2ccccc2)c1=O | 105
62 | COCCSc1[nH]nc(-c2ccc(Cl)cc2)c1-c1ccncc1 | 189 to 190
63 | Oc1ccc(-c2cocn2)cc1 | 148
64 | NCC(c1cccc(OCc2ccccc2)c1)C1CCCCC1O (mixture of isomers) | 139 to 141
65 | Cc1ccc2c(-c3cc(C(C)(C)C)c(O)c(C(C)(C)C)c3)nn(CCO)c2n1 | 183 to 185
66 | CCCCCS(=O)(=O)NC(=O)CCc1ccc(OCCOC)cc1OC1CCCCC1 | 64.1 to 65.4
67 | CC(CCBr)Oc1ccccc1 (centres undefined) | 33 to 36
68 | C[C@]12C[C@H](c3ccc(OCCCCCS(=O)(=O)CCCC(F)(F)C(F)(F)F)cc3)[C@@H]3c4ccc(OC5CCCC5)cc4CC[C@H]3[C@@H]1CC[C@@H]2O | 166
69 | Nc1nc2ccccc2c2c1nc(CNC(=O)C1CC1)n2CC1(O)CCCCC1 | > 250
70 | O=C(NCCO)c1cccc(-c2cccc3nn(Cc4ccc(F)cc4)cc23)c1 | 137 to 138
71 | c1ccc(C(OC2CCN(CCCOc3ccc(-c4nnn[nH]4)cc3)CC2)c2ccccc2)cc1 | 167 to 171
72 | Cc1noc(-c2ncn3c2[C@@H]2CCN2C(=O)c2c-3cccc2C(F)(F)F)n1 | 255 to 256
73 | CCN(C(=O)SC(C)(C)C)c1cn(-c2cccnc2)nc1Cl | 91 to 93
74 | c1ccc(OCCSCc2nnc(-c3ccc4cc(CN5CCCCC5)ccc4c3)o2)cc1 | 93 to 94
75 | CCCNc1cc(C(=O)O)cc(S(N)(=O)=O)c1Oc1ccccc1 | 223 to 224

Row | SMILES | melting point [°C]
76 | CCCc1c(OCCCC/C=C/c2ccc(C(=O)c3cccc(C(=O)O)c3)cc2CCC(=O)O)ccc2c1OCCC2=O | 105 to 109
77 | N#CC1(Nc2ccccc2)CCN(C2CCC(c3ccc(F)cc3)(c3ccc(F)cc3)CC2)CC1 | 139 to 140
78 | O=C(c1ccc(Cl)cc1)c1cc(C2(Nc3ccccc3)OCCO2)ccn1 | 102 to 103
79 | CCCCOc1ccc(S(=O)(=O)C2(C(=O)O)CCN(Cc3ccc(C#N)cc3)CC2)cc1 | 242
80 | CN(C)CCN1C(=O)c2cscc2N(C)c2ccccc21 | 147 to 149
81 | CCCCNC(=O)c1cccc(S(=O)(=O)NC(=O)c2ccc(C(=O)NCC(=O)O)nc2)c1 | 220
82 | O=C(Cn1ccnc1)c1ccc(Cl)cn1 | 122 to 129
83 | CC(C)c1cccc(C(C)C)c1NC(=O)NOC(c1ccccc1)c1ccccc1 | 152 to 154
84 | O=c1ccsc2c1[nH]c1ccc(Br)cc12 | 334 to 337
85 | O=C(O)CS(=O)(=O)CC(F)(F)F | 145
86 | CCOP(=O)(OCC)c1cc2cc(S(=O)(=O)Cl)c(Cl)cc2[nH]c1=O | 190 to 200
87 | O=C1Nc2ccc(-c3ccc(F)c(Cl)c3)cc2C12CCCC2 | 202 to 204
88 | O=C(NCCO)c1cccc(-c2cccc3nc(Oc4cccc(C(F)(F)F)c4)sc23)c1 | 103 to 104
89 | Nc1ccc(Br)cc1C(=O)c1ccccc1 | 109 to 110
90 | N#Cc1cc(CBr)ccc1Cl | 55 to 58
91 | COc1cc(N)c([N+](=O)[O-])cc1I | 189
92 | CC1(C)C(CC(Cl)(Cl)Cl)C1C(=O)O (centres undefined) | 85 to 89
93 | CCCc1c(OCCCCC(=O)N(C)C)ccc(C(C)=O)c1O | 95 to 97
94 | COC(=O)C1=C(C)Nc2nccn2C1c1cccc(C(C)=O)c1 (centres undefined) | 227 to 229
95 | Cc1ccccc1C(=O)Nc1ccc(C(=O)N2CCCC(NC(=O)CN(C)C)c3ccccc32)cc1 (centres undefined) | 214 to 216
96 | CCCCCCCCNC(=O)OCc1ccccc1[N+](=O)[O-] | 70 to 71
97 | O=C(Nc1cccc(F)n1)c1cc(-c2ccc(O)cc2)nc2ccccc12 | 210 to 212
98 | COc1ccc(NC(=O)c2coc3c2C(=O)CCCC3)c(F)c1 | 168 to 172
99 | COC(=O)c1cc(C=O)ccc1OCc1nc(-c2ccco2)oc1C | 121 to 122
